According to patent publication US6211209A, “Method of inhibiting connective tissue degradation” (Warner-Lambert Company, priority 1998, dated 2001):

Legend:
Format in all cases: cell-based
72 kDa gelatinase = assay: Gelatin zymography of bovine nasal cartilage conditioned media: expression of 72 kDa gelatinase; details: various concentrations, FIG. 1
Experimental: (§1) To evaluate the effects of the compounds of the present invention on the expression of 72 kDa and 92 kDa gelatinases, samples obtained from the bovine nasal cartilage study (described above) were subjected to gelatin zymography.
(§2) Separating gels (8%) were made by combining 400 μL gelatin (25 mg/mL) with: 2.5 mL Tris (1.5 M); 100 μL SDS (10%); 2.6 mL acrylamide (30%); 10 μL TEMED; 4.6 mL dH2 O; 100 μL ammonium persulfate (10%). Stacking gels (4.5%) were formed by combining: 2.5 mL Tris (0.5 M); 100 μL SDS (10%); 1.5 mL acrylamide (30%); 10 μL TEMED; 5.8 mL dH2 O; 100 μL ammonium persulfate (10%).
(§3) Bovine nasal cartilage conditioned media was diluted (1:15) using sample buffer 1X (2% SDS, 15% glycerol, 0.01% bromophenol blue, 0.25M Trizma Base, pH 6.8). Thirty microliters of each of the diluted samples and molecular weight standards were subjected to electrophoresis at 4° C. under constant current conditions (20 mA of current/gel) using Tris/Glycine running buffer (0.5 M Trizma Base, pH 8.8 using glycine, 1% SDS) that was diluted 1:20 before use.
After completion of the electrophoretic procedure, the gel was first washed twice for 15 minutes in 2.5% Triton X-100. The gel was then rinsed with the gel incubation buffer (0.05 M Tris, pH 8.2, 0.005 M CaCl2, 0.5 μM ZnCl2) and incubated overnight in this buffer at 37° C. […]

[1] = tested on: human articular cartilage; assay: Human articular cartilage assay: IL-1α-induced proteoglycan loss from osteoarthritic cartilage; details: for % Proteoglycan Release: 30 μM, with IL-1α, mean ± SE
Description: Human articular cartilage was obtained from St. Joseph Hospital in Ypsilanti, Mich.; cell culture reagents from Gibco (Grand Island, N.Y.); human recombinant Interleukin-1α (IL1α) from Genzyme (Cambridge, Mass.); DMB from Polysciences (Warrington, Pa.); Falcon 24 well flat-bottom tissue culture plates from Becton Dickinson (Lincoln Park, N.Y.); Papain from Sigma (P-3125, St. Louis, Mo.); high purity dimethyl sulfoxide from Burdic & Jackson (081-1, Distributed by Baxter Healthcare, McGraw Park, Ill.); Sarstedt vials for 96-vial aluminum racks (Sarstedt, Newton, N.C.); Cetus Pro/Pette (Perkin Elmer, Norwalk, Conn.); Biomek 1000 (Beckman, Fullerton, Calif.)
The assay was performed in two phases. The cartilage pieces were first incubated with IL-1α in the presence of compound. The amount of proteoglycan released was then quantified by measuring chondroitin sulfate present in the media using the 1,9-Dimethylmethylene Blue Assay (DMB).
The articular cartilage used in this study was obtained from osteoarthritis patients undergoing total knee or hip replacment surgery. The ages of the patients ranged from 50 to 70 years. To establish cartilage organ cultures, uniform cartilage slices measuring 11 mm×11 mm were dissected from the underlying bone using a #20 scalpel blade and placed in isotonic saline. The cartilage slices were washed in Gey's balanced salt solution and placed (one piece/well) in Falcon 24 well flat-bottom tissue culture plates (Becton Dickinson, Lincoln Park, N.J.). The cartilage organ cultures were maintained in complete Ham's F-12 (supplemented with 10% fetal calf serum, 6.5 mg/mL Hepes, 58.5 μg/mL glutamine, 200 μg/mL MgSO4, 100 units/mL Pencillin G sodium, 100 μg/mL streptomycin sulfate, and 0.25 μg/mL amphotericin B) at 37° C. in a humidified atmosphere of 95% air and 5% CO2. The cartilage cultures were allowed to equilibrate in this medium for 4 to 5 days. Just before starting the experiment, the serum-containing spent medium was removed and cartilage cultures rinsed with 1 mL F-12 Nutrient Mixture (without phenol red) in order to remove residual FCS. Each treatment group was done in triplicate. […] All the media removed from cultures was collected and analyzed using the 1,9 DMB assay. At the end of experimental period, cartilage pieces were digested with papain and analysed using the 1,9 DMB assay.
The ability of a compound to inhibit proteoglycan release from cartilage pieces was quantified by measuring chondroitin sulfate. […] This color change was measured using a Titertek Multiscan MCC 340 plate reader at 540 nm. […] It was necessary to dilute (1:5, 1:10) the medium before a DMB assay was performed by adding 10 μL of collected media to 290 μL DMB (16 mg dye/L of 0.1 M formate buffer, pH 3.5, containing 5 mL ethanol) and reading at 540 nm. […]

92 kDa gelatinase = assay: Gelatin zymography of bovine nasal cartilage conditioned media: expression of 92 kDa gelatinase
Experimental: as §1, §2, §3
After completion of the electrophoretic procedure, the gel was first washed twice for 15 minutes in 2.5% Triton X-100. The gel was then rinsed with the gel incubation buffer (0.05 M Tris, pH 8.2, 0.005 M CaCl2, 0.5 μM ZnCl2) and incubated overnight in this buffer at 37° C. After the incubation period, the gel was stained for 30 minutes in 0.125% Coomassie and destained using 10% methanol/5% acetic acid destaining solution.

## S=c1[nH]nc(-c2ccccc2Nc2ccccc2)o1 [Compound 1, 5-(2-Phenylamino-phenyl)-3H-[1,3,4]oxadiazole-2-thione]
72 kDa gelatinase
  effect on expression of 72 kDa gelatinase: no effect on expression of 72 kDa gelatinase
[1]; 48 hours, n = 3 (control 3.7, IL-1α 9.0)
  % Proteoglycan Release: 4.0 ± 0.2%
[1]; 96 hours, n = 3 (control 5.7, IL-1α 14.4)
  % Proteoglycan Release: 7.4 ± 0.4%
[1]; 144 hours, n = 3 (control 7.0, IL-1α 16.9)
  % Proteoglycan Release: 10.0 ± 0.8%
[1]; over the course of the experiment, human osteoarthritic cartilage
  inhibition at 30 µM: > 70%
92 kDa gelatinase; various concentrations, IL-1β-induced, FIG. 1
  inhibiting expression of IL-1β-induced 92 kDa gelatinase: effective in inhibiting expression of IL-1β-induced 92 kDa gelatinase in a dose-dependent manner
92 kDa gelatinase; versus 72 kDa gelatinase
  specificity of effects (92 kDa versus 72 kDa gelatinase): specific to 92 kDa
